From patent US20060258729A1, “Antibacterial pyrazole carboxylic acid hydrazides” (priority 2002, published 2006) come the findings set out here.

≈ marks a conversion by molar mass, not a printed value.

The target in experiment [1] is T1, B. subtilis pol IIIC (Bacillus subtilis, UniProt P13267).
T1 construct: made in house
In words: DNA polymerase assay, B. subtilis pol IIIC. The format is biochemical.

The target in experiment [2] is T2, B. subtilis pol IIIE (Bacillus subtilis, UniProt O34623).
T2 construct: made in house
T2 sequence (O34623 whole entry): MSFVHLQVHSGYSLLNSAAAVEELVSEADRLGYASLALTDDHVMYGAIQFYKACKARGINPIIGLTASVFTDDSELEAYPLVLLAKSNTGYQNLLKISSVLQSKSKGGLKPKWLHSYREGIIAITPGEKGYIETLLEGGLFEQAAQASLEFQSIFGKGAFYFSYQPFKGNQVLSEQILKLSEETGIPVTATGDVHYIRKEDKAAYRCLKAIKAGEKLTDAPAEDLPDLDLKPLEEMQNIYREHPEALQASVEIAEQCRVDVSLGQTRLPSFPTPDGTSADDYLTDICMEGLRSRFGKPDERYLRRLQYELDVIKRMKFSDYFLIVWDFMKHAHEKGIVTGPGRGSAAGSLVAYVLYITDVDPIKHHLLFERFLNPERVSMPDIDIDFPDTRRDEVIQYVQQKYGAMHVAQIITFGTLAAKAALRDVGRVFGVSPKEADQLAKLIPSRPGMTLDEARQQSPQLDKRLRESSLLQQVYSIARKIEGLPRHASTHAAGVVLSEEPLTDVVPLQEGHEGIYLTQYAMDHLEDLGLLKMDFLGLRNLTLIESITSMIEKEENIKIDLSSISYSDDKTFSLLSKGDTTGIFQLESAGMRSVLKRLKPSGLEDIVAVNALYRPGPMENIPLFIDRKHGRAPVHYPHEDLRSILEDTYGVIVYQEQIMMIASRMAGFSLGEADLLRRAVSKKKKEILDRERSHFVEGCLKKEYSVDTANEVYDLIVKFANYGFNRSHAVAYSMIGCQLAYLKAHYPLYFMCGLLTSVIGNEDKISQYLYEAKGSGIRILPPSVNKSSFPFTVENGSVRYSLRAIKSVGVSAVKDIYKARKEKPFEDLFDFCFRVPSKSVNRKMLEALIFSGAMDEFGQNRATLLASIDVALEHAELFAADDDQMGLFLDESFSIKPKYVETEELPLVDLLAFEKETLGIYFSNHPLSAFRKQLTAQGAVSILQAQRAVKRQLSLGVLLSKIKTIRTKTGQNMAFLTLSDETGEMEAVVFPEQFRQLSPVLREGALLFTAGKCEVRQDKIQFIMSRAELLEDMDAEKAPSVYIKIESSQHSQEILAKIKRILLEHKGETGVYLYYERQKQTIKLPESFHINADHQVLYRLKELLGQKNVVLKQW
Put plainly: DNA polymerase assay, B. subtilis pol IIIE. The format is biochemical. The following applies: B. subtilis Pol IIIE IC50, 4 dNTPs, in the presence of all four dNTP substrates.

Experiment [3] has as its target T3, E. coli pol IIIE (Escherichia coli, UniProt P10443).
T3 construct: purchased Enzyco, Denver, Colo
Put plainly: DNA polymerase assay, E. coli pol IIIE. It is filed as biochemical. The following applies: 80 μg/mL (190-260 μM) final concentration; all four dNTPs; read-out: Percent Enzymatic Inhibition E. coli pol IIIE. The method, boiled down:
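Incorporation of 3H label into activated calf thymus DNA (0.4 mg/mL) from 10 μM of all four dNTPs, 10 min at 30 °C in pH 7.5 Tris/magnesium acetate, compounds in 1% DMSO. Reactions started with 0.025–0.06 units recombinant polymerase, stopped with cold TCA; IC50 and percent inhibition relative to DMSO control.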

The subject of experiment [4] is Bacillus subtilis strain BD54. In words: Inhibition of bacterial growth (MIC), Bs. The format is cell-based. Conditions: 16 to 18 hours, 37° C., read-out: Minimum Inhibitory Concentration for Bacterial Growth, Bs. The method, boiled down: (§1)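 Log-phase cultures were diluted to 1×10^5 CFU/mL in LB or BHI medium and exposed to two-fold serial compound dilutions (usually 80-0.078 μg/mL, 11 concentrations) with 1% DMSO final. After shaking incubation at 37° C. for 16 to 18 hours, growth was read as OD at 570 nm.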

Experiment [5] relates to Staphylococcus aureus strain IP 8. In words: Inhibition of bacterial growth (MIC), Sa. Conditions: IP8, 16 to 18 hours, 37° C., read-out: Minimum Inhibitory Concentration for Bacterial Growth, Sa. The format is cell-based. The method, boiled down: as §1
The test system of experiment [6] is S. aureus Smith strain. In words: Inhibition of bacterial growth (MIC), Sm. The format is cell-based, Staphylococcus aureus. The following applies: Staphylococcus aureus, 16 to 18 hours, 37° C., read-out: Minimum Inhibitory Concentration for Bacterial Growth, Sm. Put shortly:
as §1

In experiment [7] the test system is methicillin-resistant S. aureus strain 1094. In words: Inhibition of bacterial growth (MIC), MRSA. The format is cell-based, Staphylococcus aureus. Conditions: Staphylococcus aureus, MRSA, 16 to 18 hours, 37° C., read-out: Minimum Inhibitory Concentration for Bacterial Growth, MRSA. Put shortly:
as §1

The test system of experiment [8] is Enterococcus faecalis strain 29212. In words: Inhibition of bacterial growth (MIC), Efcl. The format is cell-based. Conditions: 16 to 18 hours, 37° C., read-out: Minimum Inhibitory Concentration for Bacterial Growth, Efcl. Put shortly: as §1
The subject of experiment [9] is E. faecium clinical isolate. Put plainly: Inhibition of bacterial growth (MIC), Efcm. It is filed as cell-based. Conditions: Enterococcus faecium, 16 to 18 hours, 37° C., read-out: Minimum Inhibitory Concentration for Bacterial Growth, Efcm. The method, boiled down: as §1
In experiment [10] the test system is vancomycin-resistant Enterococcus strain B42762. In words: Inhibition of bacterial growth (MIC), VRE. The format is cell-based. Conditions: VRE, 16 to 18 hours, 37° C., read-out: Minimum Inhibitory Concentration for Bacterial Growth, VRE. Put shortly:
as §1

For experiment [11], the system named is Escherichia coli strain J53. Put plainly: Inhibition of bacterial growth (MIC), Ec. The format is cell-based. The following applies: 16 to 18 hours, 37° C., read-out: Minimum Inhibitory Concentration for Bacterial Growth, Ec. The method, boiled down: as §1
Experiment [12] has as its system test strains of bacteria. In words: Inhibition of bacterial growth, whole panel of test strains. The format is cell-based. On the procedure:
Each compound was assayed against a panel of a strain of Bacillus subtilis, of strains of antibiotic-resistant and sensitive Enterococcus and Staphylococcus species, and of a strain of the Gram-negative bacterium Escherichia coli. Compounds were dissolved in DMSO at 100× the desired highest concentration and added to one well of a 96-well microassay plate. Two-fold serial drug dilutions were made across the plate in DMSO to yield 11 concentrations (usually 80-0.078 μg/mL) plus an untreated control. Drugs were then transferred to fresh plates using 1.5 μL per well. Log phase cultures were diluted to yield a concentration of 1×10^5 colony forming units/mL in either LB or BHI medium and transferred to the plates containing drug for a final volume of 150 μL. Each well, including the DMSO controls, contained a final concentration of 1% DMSO. Plates were incubated with shaking at 37° C. for 16 to 18 hours. Cell growth was determined by measuring optical density (570 nm, 1 cm path length) in a microplate reader. MIC (minimum inhibitory concentration) is equivalent to the lowest concentration at which growth is not observed. The bacterial strains and MIC determinations have been well characterized and are described elsewhere (Tarantino et al., Antimicrob. Agents Chemother., 43: 1982-1987 (1999); Daly et al., Antimicrob. Agents Chemother., 44: 2217-2221 (2000)).

For experiment [13], the target named is T2, B. subtilis pol IIIE. Put plainly: DNA polymerase assay, B. subtilis pol IIIE. The format is biochemical.
In experiment [14] the target is T1, B. subtilis pol IIIC. In words: Classical enzyme kinetic analyses (Lineweaver-Burk) with pol IIIC. Conditions: variable substrate dGTP; Compound 17 at 0, 20, 60 μM; HB-EMAU at 0, 1.6, 4.8 μM. It is filed as biochemical. As to the method: The variable substrate in the experiments for FIGS. 1A and 1B was dGTP. See text for details.
Classical enzyme kinetic analyses were performed with Compound 17 and pol IIIC in which reaction velocity was measured as a function of each substrate (dGTP) concentration at several inhibitor concentrations (0, 20, and 60 μM). The results are graphed in a double reciprocal plot by the method of Lineweaver and Burk in FIG. 1A and show the effect of varying dGTP.
Compounds of the anilinouracil (AU) family, classical DNA polymerase inhibitors, inhibit pol IIIC strictly by “competitive” inhibition. An example is shown in the double reciprocal plot in FIG. 1B for the compound N3-hydroxybutyl 6-(3′-ethyl-4′-methylanilino) uracil (HB-EMAU), tested at 0, 1.6, and 4.8 μM. Such AU compounds compete with the dGTP substrate for binding to the enzyme (Clements et al., J. Biol. Chem. 250, 522-526 (1975)). “Noncompetive” inhibitors are exemplified by the class of HIV reverse transcriptase inhibitors, 4,5,6,7-tetrahydro-5-methylimidazo[4,5,1-jk][1,4]benzodiazepin-2(1H)-one (TIBO), i.e., TIBO compounds bind a site adjacent to the active site (Spence et al., Science 267, 988-993 (1995)). In contrast, the data in FIG. 1A clearly indicate that Compound 17, a pyrazole carboxylic acid hydrazide, inhibits pol IIIC by an “uncompetitive” mechanism.

T1 sequence (P13267 whole entry): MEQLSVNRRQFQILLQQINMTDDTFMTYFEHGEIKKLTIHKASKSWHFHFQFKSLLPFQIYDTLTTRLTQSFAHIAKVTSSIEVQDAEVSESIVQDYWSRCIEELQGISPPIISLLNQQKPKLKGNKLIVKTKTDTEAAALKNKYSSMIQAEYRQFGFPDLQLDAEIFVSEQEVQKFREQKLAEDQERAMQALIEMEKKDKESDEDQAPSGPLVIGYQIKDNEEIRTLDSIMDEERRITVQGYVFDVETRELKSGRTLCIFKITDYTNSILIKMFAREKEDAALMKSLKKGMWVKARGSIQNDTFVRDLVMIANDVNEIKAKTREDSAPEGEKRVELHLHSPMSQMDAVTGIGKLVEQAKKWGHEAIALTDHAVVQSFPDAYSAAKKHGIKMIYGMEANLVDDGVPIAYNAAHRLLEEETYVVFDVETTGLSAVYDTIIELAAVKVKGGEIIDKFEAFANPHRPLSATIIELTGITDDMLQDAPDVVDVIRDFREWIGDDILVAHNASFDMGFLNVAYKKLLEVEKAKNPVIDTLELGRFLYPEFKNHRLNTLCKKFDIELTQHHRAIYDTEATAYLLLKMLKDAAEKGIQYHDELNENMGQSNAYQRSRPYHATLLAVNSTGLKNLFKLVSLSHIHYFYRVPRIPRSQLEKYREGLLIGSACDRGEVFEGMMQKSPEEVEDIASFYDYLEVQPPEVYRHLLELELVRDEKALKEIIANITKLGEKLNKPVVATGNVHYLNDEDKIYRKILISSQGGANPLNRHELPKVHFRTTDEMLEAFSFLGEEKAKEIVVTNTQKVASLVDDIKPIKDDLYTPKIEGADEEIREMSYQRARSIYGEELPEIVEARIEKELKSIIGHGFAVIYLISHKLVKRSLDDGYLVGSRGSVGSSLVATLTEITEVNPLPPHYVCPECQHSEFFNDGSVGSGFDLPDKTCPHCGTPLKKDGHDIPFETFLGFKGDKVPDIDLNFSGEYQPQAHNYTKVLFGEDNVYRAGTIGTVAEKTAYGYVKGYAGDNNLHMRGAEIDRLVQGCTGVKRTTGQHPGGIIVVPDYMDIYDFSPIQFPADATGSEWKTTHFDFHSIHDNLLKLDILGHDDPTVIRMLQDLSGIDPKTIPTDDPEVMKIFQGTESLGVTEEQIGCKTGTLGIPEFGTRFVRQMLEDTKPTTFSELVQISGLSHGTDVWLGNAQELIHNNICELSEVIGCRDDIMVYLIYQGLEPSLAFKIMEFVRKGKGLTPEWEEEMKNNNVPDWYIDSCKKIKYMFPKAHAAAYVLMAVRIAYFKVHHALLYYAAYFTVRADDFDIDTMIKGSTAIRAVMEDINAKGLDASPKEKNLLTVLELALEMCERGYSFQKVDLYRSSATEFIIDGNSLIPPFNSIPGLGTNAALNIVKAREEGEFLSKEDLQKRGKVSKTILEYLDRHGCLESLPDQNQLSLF
T3 sequence (P10443 whole entry): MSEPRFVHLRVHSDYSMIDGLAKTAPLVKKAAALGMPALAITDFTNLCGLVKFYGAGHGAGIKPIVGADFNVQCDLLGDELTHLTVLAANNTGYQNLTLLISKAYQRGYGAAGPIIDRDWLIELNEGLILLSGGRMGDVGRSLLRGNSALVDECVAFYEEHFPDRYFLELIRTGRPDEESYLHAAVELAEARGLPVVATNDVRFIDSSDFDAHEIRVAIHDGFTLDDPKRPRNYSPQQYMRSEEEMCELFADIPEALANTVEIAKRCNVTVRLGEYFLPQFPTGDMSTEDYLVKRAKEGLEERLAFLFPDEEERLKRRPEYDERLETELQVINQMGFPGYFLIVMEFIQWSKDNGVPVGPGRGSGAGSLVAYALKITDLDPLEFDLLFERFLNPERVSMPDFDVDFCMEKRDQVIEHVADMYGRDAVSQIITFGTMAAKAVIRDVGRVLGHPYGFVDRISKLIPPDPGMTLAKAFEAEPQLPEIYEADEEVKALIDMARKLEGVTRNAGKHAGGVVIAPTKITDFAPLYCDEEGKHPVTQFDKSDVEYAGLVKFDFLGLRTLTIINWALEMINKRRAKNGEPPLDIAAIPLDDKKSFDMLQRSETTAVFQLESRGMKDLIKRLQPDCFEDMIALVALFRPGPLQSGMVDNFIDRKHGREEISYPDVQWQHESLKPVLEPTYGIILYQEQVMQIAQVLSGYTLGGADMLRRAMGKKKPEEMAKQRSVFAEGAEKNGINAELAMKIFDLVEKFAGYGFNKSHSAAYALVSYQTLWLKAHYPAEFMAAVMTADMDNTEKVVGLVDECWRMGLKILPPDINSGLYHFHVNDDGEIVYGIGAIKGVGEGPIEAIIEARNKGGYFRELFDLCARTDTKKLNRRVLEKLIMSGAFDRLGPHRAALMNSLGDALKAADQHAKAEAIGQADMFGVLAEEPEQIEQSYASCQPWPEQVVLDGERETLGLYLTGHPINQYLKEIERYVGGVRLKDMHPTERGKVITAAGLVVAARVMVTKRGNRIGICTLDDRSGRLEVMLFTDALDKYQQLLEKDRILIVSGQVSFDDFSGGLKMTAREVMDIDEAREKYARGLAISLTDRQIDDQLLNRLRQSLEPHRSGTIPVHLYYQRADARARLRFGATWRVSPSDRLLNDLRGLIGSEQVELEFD

The inhibition is the percentage by which the read-out fell short of the control. The IC50 is the concentration at which inhibition is half-maximal. In the case of `COc1cc(C=NNC(=O)c2cc(-c3ccccc3)n[nH]2)cc(OC)c1OC` [Compound 1], the inhibition at 80 µg/mL is 14.3% in experiment [1] (80 μg/mL (190-260 μM) final concentration, all four dNTPs, read-out: Percent Enzymatic Inhibition B. subtilis pol IIIC) and 0.4% in [3]. Also, the IC50 came to 188 µM in experiment [1] (B. subtilis Pol IIIC IC50, 4 dNTPs, in the presence of all four dNTP substrates); 10 µM in experiment [1] (B. subtilis Pol IIIC IC50, −dATP, in the absence of dATP); 44 µM in experiment [1] (B. subtilis Pol IIIC IC50, −dCTP, in the absence of dCTP); 14 µM in [1] (B. subtilis Pol IIIC IC50, −dGTP, in the absence of dGTP); 166 µM in experiment [2]; 75 µM in experiment [13] (B. subtilis Pol IIIE IC50, −dATP, in the absence of dATP). For the same compound, the IC50 in experiment [13] (B. subtilis Pol IIIE IC50, −dCTP, in the absence of dCTP) is 62 µM; in [13] (B. subtilis Pol IIIE IC50, −dGTP, in the absence of dGTP), 51 µM. Moreover, the MIC came to 3 µg/mL (≈ 7.89 µM) in experiment [4]; 3 µg/mL (≈ 7.89 µM) in experiment [5]; 5 µg/mL (≈ 13.1 µM) in [6]; 10 µg/mL (≈ 26.3 µM) in experiment [7]; 10 µg/mL (≈ 26.3 µM) in experiment [8]; 20 µg/mL (≈ 52.6 µM) in experiment [9]. Moreover, the MIC in experiment [10] is 20 µg/mL (≈ 52.6 µM); in experiment [11] it was greater than 80 µg/mL. For the same compound, the “Inhibition of bacterial growth, result in words (rank of MIC values)” value in experiment [12] is reported as “second”.
Turning to `CCc1cc(Nc2cc(=O)n(CCCCO)c(=O)[nH]2)ccc1C` [HB-EMAU, N3-hydroxybutyl 6-(3′-ethyl-4′-methylanilino) uracil, reference compound], the “Mechanism of inhibition of pol IIIC (double reciprocal plot)” value in experiment [14] is “competitive inhibition mechanism”.
